Assay results: US20050228052A1, “Methods of treating, preventing and managing a sleep disorder using (S)-didesmethylsibutramine” (priority 2004, published 2005)
Like-named read-outs stand apart in the source and are kept apart here.

Key:
[1] = target: T1, human recombinant norepinephrine (NE) uptake site (Homo sapiens, UniProt P23975); assay: Binding at the norepinephrine (NE) uptake site
T1 construct: expressed in transfected cells

[2] = target: nonselective muscarinic receptor; assay: Binding at the nonselective muscarinic receptor; design: species or system rat
[3] = target: serotonin (5-HT) uptake site (Rattus norvegicus, UniProt P31652); details: summary of the table data
serotonin (5-HT) uptake site, sequence (P31652 whole entry): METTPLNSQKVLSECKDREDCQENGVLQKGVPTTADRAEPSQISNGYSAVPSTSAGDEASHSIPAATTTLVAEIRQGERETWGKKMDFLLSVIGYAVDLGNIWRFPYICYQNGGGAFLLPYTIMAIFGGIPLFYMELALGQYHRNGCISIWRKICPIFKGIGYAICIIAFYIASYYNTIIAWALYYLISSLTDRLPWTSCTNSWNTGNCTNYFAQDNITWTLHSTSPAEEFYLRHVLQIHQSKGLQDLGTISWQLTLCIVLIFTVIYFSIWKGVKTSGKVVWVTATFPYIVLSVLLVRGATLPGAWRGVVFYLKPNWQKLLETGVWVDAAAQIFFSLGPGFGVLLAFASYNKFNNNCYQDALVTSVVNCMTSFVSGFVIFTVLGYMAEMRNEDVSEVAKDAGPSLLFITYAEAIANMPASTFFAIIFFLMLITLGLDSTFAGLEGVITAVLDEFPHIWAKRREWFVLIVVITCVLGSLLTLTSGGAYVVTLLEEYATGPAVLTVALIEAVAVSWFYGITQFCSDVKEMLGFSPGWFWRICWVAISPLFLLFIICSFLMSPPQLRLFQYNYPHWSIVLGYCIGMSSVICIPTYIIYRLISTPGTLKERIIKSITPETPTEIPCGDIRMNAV
Protocol: IC50 values (concentration required to inhibit 50% specific binding) were then determined by nonlinear regression analysis of the curves and tabulated below.

T1 sequence (P23975 whole entry): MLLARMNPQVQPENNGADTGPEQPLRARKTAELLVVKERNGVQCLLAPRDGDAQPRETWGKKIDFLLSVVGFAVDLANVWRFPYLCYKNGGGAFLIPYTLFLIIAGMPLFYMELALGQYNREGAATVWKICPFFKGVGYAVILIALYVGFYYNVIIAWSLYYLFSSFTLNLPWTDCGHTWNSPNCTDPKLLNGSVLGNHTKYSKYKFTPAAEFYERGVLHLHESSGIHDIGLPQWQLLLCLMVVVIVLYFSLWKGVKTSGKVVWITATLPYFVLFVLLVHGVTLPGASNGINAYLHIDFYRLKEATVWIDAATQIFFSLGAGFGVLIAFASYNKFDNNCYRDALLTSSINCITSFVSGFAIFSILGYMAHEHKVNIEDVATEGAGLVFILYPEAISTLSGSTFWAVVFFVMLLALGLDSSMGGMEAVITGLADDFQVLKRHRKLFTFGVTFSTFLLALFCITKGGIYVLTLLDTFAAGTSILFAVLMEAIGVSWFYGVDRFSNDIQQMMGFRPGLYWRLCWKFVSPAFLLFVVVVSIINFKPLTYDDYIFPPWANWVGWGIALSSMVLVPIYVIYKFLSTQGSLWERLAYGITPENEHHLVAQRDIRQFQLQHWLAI

CC(C)C[C@@H](N)C1(c2ccc(Cl)cc2)CCC1 [(R)-DDMS]
IC50 [1]: 13 nM

CC(C)CC(N)C1(c2ccc(Cl)cc2)CCC1 (racemic) [(R/S)-DDMS]
IC50 ([1]; human recombinant NE uptake site, single value or first value before slash, read-out: Binding IC50 Values (nM) NE Uptake): 16 nM

CN1[C@@H]2CC[C@H]1C[C@@H](OC(=O)C(CO)c1ccccc1)C2 (stereo partly shown) [Atropine, reference compound]
IC50 ([2]; rat cerebral cortex, inhibition of specific binding, competition curves, read-out: Binding IC50 Values (nM) Mucarinic Receptor): 0.31 nM

CC(C)C[C@H](N)C1(c2ccc(Cl)cc2)CCC1 [(S)-DDMS, 1-[1-(4-chlorophenyl)cyclobutyl]-3-methyl-butylamine]
Affinity for the muscarinic site, result in words ([2]; summary of the table data): without appreciable 5-HT or muscarinic activity
IC50 [1]: 6.2 nM
NE uptake site binding, result in words ([1]; summary of the table data): potent inhibitor of NE uptake
5-HT uptake site binding, result in words [3]: without appreciable 5-HT or muscarinic activity
